Results on one compound are retold here after PMC5520492, “Inhibition of DNA2 nuclease as a therapeutic strategy targeting replication stress in cancer cells” (Oncogenesis, 2017).

In test [1] the target is T1, yDna2 (Saccharomyces cerevisiae, UniProt P38859).
T1 construct: made in house
Description: High-throughput fluorescence nuclease assay with yDna2 (triply labeled (dT)30 ssDNA). In kind it is biochemical, yeast. Particulars: compounds that inhibit yDna2 but not T5 nuclease; 384-well platform; read-out: IC50 from Screening In Vitro. Here is the method:
The screen entailed the use of oligonucleotide (dT)30 having a reporter fluorescent moiety, 6-FAM on the 5′ end, and the dark quenching group, Iowa Black FQ, on the 3′ end. In addition, a second dark quencher ZEN was placed between the 9th and 10th base (Figure 2a). The fluorescence emitted by 6-FAM is quenched by FRET, but it increases when DNA is degraded by Dna2. […] The inhibitory activity of the compounds was determined as a reduction in fluorescent signal compared with the dimethylsulfoxide (DMSO) only control. […] We screened ~50 000 chemical compounds from six different libraries (Supplementary Table S1) to identify chemical inhibitors of the Dna2 nuclease activity. […] The DNA2 nuclease domain is well conserved among eukaryotes, and therefore we reasoned that inhibitors of yDna2 will likely also work with the human counterpart.
Initial screen, it was performed with yDna2.[22] Then, the top candidate compounds were tested on hDNA2. Identical reaction conditions were used for assaying the nuclease activity of yDna2 and hDNA2. […] The reaction buffer was 20 mM HEPES/NaOH, pH 7.5, 60 mM KCl, 1 mM DTT, 100 μg/ml bovine serum albumin and 0.05% Triton X-100. The nuclease assay was initiated by adding MgCl2 (3 mM final concentration). T5 nuclease was assayed in the buffer (50 mM potassium acetate, pH 7.9, 20 mM Tris-acetate, 10 mM magnesium acetate and 1 mM DTT) provided by the vendor (NEB, Ipswich, MA, USA). The concentration of the fluorogenic substrate was 0.1 μM. The optimal amount of yDna2, hDNA2 and T5 nuclease was determined by utilizing the Kaleidagraph software (Reading, PA, USA) to fit the data according to Michaelis Menton Kinetics (V=V0+Vmax*x/(Km+x)). […] The Z’ value was calculated as previously described.[50] Cell proliferation was determined using 4,6-diamidino-2-phenylindole staining followed by high-throughput microscopy in a 384-well plate setup. In brief, cells were fixed with formaldehyde, washed and stained with 4,6-diamidino-2-phenylindole and the number of nuclei in each well counted by automated microscopy. The data were analyzed as described.[51]

The test system of test [2] is U2OS cells. Description: Cell-based viability/proliferation screen, DAPI staining and automated microscopy. The arrangement: species or system human. Particulars: Homo sapiens, 10 pM to 10 μM, DAPI staining, read-out: IC50 from Screening Cell Based. How it is done:
The biological effectiveness of the 39 compounds selected by re-screening was determined by measuring their half maximal inhibitory concentration (IC50) biochemically and in a cell-based system using the 384-well platform (Supplementary Table S2). […] We conducted the viability assay in duplicate on three separate occasions using a concentration range of 10 pM to 10 μM for each compound. Cell proliferation was determined using 4,6-diamidino-2-phenylindole staining and microscopy.
In addition, a second dark quencher ZEN (N,N-diethyl-4-(4-nitronaphthalen-1-ylazo)-phenylamine, absorption max.=532 nm) is placed between 9th and 10th base (Figure 2a). Initial screen, it was performed with yDna2.[22] Then, the top candidate compounds were tested on hDNA2. Identical reaction conditions were used for assaying the nuclease activity of yDna2 and hDNA2. […] The reaction buffer was 20 mM HEPES/NaOH, pH 7.5, 60 mM KCl, 1 mM DTT, 100 μg/ml bovine serum albumin and 0.05% Triton X-100. The nuclease assay was initiated by adding MgCl2 (3 mM final concentration). T5 nuclease was assayed in the buffer (50 mM potassium acetate, pH 7.9, 20 mM Tris-acetate, 10 mM magnesium acetate and 1 mM DTT) provided by the vendor (NEB, Ipswich, MA, USA). The concentration of the fluorogenic substrate was 0.1 μM. The optimal amount of yDna2, hDNA2 and T5 nuclease was determined by utilizing the Kaleidagraph software (Reading, PA, USA) to fit the data according to Michaelis Menton Kinetics (V=V0+Vmax*x/(Km+x)). […] All the compounds were dissolved in DMSO and DMSO alone was used as control; the final concentration of DMSO was at 3.33% for protein-based assay and 0.1% for cell-based assay. The Z’ value was calculated as previously described.[50] Cell proliferation was determined using 4,6-diamidino-2-phenylindole staining followed by high-throughput microscopy in a 384-well plate setup. In brief, cells were fixed with formaldehyde, washed and stained with 4,6-diamidino-2-phenylindole and the number of nuclei in each well counted by automated microscopy. The data were analyzed as described.[51]

T1 sequence (P38859 whole entry): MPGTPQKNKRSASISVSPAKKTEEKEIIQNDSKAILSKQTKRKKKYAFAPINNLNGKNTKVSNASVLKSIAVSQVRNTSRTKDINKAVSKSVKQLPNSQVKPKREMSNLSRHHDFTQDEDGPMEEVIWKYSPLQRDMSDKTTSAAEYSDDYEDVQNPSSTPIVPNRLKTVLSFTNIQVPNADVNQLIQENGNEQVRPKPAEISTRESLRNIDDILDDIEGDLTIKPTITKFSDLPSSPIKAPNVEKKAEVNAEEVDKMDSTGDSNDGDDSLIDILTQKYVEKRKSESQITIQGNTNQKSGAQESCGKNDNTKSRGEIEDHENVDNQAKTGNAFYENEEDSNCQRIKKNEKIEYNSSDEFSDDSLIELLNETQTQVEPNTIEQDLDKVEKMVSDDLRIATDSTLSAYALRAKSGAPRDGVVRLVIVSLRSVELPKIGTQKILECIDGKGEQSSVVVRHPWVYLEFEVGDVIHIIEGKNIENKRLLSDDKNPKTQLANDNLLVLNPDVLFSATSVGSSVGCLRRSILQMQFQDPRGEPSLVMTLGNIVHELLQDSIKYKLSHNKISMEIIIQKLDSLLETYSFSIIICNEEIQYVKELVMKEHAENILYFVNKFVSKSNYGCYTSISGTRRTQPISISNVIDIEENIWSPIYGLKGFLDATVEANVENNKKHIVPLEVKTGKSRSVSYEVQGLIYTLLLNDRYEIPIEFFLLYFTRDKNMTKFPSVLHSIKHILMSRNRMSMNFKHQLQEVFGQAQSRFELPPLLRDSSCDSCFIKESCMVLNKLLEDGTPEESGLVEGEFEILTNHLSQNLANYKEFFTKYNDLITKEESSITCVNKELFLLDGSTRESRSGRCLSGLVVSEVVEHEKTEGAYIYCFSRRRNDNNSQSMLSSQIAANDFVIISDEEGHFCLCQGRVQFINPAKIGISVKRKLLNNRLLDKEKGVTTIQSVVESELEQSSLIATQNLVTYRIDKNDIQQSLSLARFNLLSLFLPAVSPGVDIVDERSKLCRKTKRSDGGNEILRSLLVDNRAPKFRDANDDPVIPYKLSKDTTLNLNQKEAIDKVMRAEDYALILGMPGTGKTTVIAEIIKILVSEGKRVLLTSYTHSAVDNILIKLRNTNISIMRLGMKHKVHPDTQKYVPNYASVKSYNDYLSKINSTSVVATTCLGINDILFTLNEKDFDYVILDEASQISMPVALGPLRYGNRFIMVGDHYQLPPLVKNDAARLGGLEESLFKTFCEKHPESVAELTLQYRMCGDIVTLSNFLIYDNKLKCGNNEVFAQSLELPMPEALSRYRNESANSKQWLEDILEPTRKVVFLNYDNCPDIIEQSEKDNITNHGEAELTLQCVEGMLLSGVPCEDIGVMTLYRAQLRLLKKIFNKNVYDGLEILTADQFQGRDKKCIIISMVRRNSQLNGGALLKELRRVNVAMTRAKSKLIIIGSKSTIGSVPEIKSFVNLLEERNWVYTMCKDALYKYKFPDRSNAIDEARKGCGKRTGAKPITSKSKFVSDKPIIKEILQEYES

For the compound `CN(C)C/C=C/C(=O)Nc1cc2c(Nc3ccc(F)c(Cl)c3)ncnc2cc1O[C@H]1CCOC1` [BIBW2992, reference compound], the IC50 in test [1] is 7.2 µM; in test [2], 1.2 µM.
